Experimental data as given in patent publication US10793547B2, “Modulator of the cystic fibrosis transmembrane conductance regulator, pharmaceutical compositions, methods of treatment, and process for making the modulator” (Vertex Pharmaceuticals Incorporated, priority 2016, dated 2020).

How the values were obtained:
[1] = MDCK-Wild Type permeability, 96 well + 0.1% BSA; format: in vitro ADME; details: dog, MDCK, A-B direction, read-out: MDCK-Wild Type-Permeability 96 well + 0.1% BSA Papp compound (A-B)
Rat hepatocytes = assay: Hepatocyte clearance, rat hepatocytes; format: in vitro ADME; details: percent unchanged
F508del-CFTR = target: T1, F508del-CFTR (Homo sapiens, UniProt P13569, DEL508-508); assay: Membrane potential optical (FLIPR) assay for F508del-CFTR modulators in NIH 3T3 cells; format: cell-based; details: NIH 3T3 cells expressing F508del; assay A1; read-out: CFTRdF508 Cor 3T3 FLIPR 384 CFTRdF508 MP 3T3 770 EC50
T1 construct: expressed in transfected cells
T1 sequence (P13569 with tags, fused parts or gaps DEL508-508): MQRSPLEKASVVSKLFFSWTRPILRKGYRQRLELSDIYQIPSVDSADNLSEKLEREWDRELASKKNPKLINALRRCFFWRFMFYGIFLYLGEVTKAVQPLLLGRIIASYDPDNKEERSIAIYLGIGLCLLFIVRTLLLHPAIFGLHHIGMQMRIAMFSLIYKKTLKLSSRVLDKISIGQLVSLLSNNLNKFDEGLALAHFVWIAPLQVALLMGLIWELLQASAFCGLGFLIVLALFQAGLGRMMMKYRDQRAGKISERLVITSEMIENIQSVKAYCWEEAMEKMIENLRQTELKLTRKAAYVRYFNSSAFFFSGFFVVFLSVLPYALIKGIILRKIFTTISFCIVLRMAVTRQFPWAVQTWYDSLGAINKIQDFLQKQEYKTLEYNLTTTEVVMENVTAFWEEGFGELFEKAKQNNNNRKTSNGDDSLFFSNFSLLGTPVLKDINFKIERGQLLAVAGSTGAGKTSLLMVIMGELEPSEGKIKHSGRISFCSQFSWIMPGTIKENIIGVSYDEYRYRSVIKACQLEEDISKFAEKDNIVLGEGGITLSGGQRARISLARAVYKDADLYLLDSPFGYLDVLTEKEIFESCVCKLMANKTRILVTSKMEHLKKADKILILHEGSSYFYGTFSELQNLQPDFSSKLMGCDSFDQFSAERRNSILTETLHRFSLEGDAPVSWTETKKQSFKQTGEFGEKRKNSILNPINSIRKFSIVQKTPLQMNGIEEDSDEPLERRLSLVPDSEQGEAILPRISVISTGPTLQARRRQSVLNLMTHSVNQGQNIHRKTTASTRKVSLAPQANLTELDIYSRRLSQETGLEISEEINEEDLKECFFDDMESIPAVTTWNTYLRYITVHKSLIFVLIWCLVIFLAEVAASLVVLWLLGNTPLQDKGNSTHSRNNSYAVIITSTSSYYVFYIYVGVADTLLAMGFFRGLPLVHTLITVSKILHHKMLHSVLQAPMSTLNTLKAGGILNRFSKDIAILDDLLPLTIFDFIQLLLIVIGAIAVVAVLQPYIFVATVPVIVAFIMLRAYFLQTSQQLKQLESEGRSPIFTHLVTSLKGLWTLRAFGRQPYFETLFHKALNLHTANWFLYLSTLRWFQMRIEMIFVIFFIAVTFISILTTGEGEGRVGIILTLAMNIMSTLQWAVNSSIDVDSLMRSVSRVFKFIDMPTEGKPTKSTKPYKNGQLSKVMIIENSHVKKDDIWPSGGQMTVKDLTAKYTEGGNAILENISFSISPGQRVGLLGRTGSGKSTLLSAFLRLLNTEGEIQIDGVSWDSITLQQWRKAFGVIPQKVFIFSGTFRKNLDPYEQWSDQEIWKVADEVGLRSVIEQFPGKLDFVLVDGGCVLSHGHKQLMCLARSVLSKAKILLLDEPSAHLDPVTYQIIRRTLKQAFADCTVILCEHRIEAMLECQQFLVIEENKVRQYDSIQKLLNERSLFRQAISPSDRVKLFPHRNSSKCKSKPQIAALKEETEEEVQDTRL
From the text: Membrane Potential Optical Methods for Assaying Properties of F508del-CFTR Modulators
The assay utilizes fluorescent voltage sensing dyes to measure changes in membrane potential using a fluorescent plate reader (e.g., FLIPR III, Molecular Devices, Inc.) as a readout for increase in functional F508del in NIH 3T3 cells. The driving force for the response is the creation of a chloride ion gradient in conjunction with channel activation and concurrent with compound treatment by a single liquid addition step after the cells have previously been loaded with a voltage sensing dye.
A1. Identification of F508del-CFTR Modulators
To identify modulators of F508del, a fluorescence based HTS assay format was developed. This HTS assay utilizes fluorescent voltage sensing dyes to measure changes in membrane potential on the FLIPR III as a measurement for increase in gating (conductance) of F508del NIH 3T3 cells. The driving force for the response is the creation of a chloride ion gradient in conjunction with channel activation and concurrent with compound treatment by a single liquid addition step after the cells have previously been loaded with a voltage sensing dye.
Bath Solution #1: (in mM) NaCl 160, KCl 4.5, CaCl2 2, MgCl2 1, HEPES 10, pH 7.4 with NaOH, Glucose 10.
Chloride-free bath solution: Chloride salts in Bath Solution #1 (above) are substituted with gluconate salts.
NIH3T3 mouse fibroblasts stably expressing F508del were used for optical measurements of membrane potential. The cells were maintained at 37° C. in 5% CO2 and 90% humidity in Dulbecco's modified Eagle's medium supplemented with 2 mM glutamine, 10% fetal bovine serum, 1×NEAA, β-ME, 1× pen/strep, and 25 mM HEPES in 175 cm^2 culture flasks. For all optical assays, the cells were seeded at 12,000 cells/well in 384-well matrigel-coated plates and cultured for 18-24 hrs at 37° C. for the potentiator assay. For the correction assay, the cells were cultured at 37° C. with and without compounds for 18-24 hours.

human PXR = target: T2, human PXR (Homo sapiens, UniProt O75469); assay: PXR assay: PXR mediated CYP3A4 induction in DPX-2 cell line; format: cell-based; details: DPX-2 cells
T2 construct: host or cells: DPX-2 cell line (derived from HepG2)
T2 sequence (O75469 1-434): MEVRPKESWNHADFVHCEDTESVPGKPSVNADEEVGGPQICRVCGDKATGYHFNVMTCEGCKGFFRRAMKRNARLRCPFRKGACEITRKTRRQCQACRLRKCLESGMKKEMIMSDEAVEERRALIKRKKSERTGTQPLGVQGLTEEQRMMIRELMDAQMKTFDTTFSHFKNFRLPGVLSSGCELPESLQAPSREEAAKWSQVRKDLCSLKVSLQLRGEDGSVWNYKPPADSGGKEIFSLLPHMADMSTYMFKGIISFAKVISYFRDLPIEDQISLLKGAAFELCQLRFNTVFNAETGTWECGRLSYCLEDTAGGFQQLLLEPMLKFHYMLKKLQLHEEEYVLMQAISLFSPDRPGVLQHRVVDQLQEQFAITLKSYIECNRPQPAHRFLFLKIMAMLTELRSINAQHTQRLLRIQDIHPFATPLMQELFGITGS
Description: D. Experimental Protocol for PXR Assay
The propensity for PXR mediated CYP3A4 induction is assessed using the DPX-2 cell line in vitro. This cell line, which has been licensed from Puracyp Inc. was derived from HepG2 cells and has been stably transfected with genes encoding human PXR as well as a modified luciferase reporter linked to the CYP3A4 promoter region and related distal and proximal enhancers.
The assay is run in 384 well format and each test article is administered in 11 doses ranging from 0.1 to 60 μM. On day 1, DPX-2 cells which have previously been expanded in-house and cryopreserved are thawed and seeded in tissue culture plates. The following day, media is changed and cells are cultured in media containing test article, vehicle control or the positive control compound, the clinically validated CYP3A4 inducer rifampicin. Cells are cultured in the presence of test article for 48 hours and then cell viability is assessed using fluorescence based assay (Cell Titer-Fluor, Promega) with an EnVision Plate Reader (PerkinElmer). Subsequently, CYP3A4 transactivation, which is proportional to luciferase activity, is measured by reading luminescense using the Promega One-Glo reagent system using the same plate reader.
Data processing within the Genedata software package allows reporting of max fold induction compared to vehicle control, an EC50 value for CYP3A4 inducers and an 11 point-dose response curve.

SMILES | Papp A→B [1] [×10⁻⁶ cm/s] | Hepatocyte clearance-Rat Rat hepatocytes CL pct_unchanged (Rat hepatocytes) [%] | EC50 (F508del-CFTR) [µM] | CYP3A4 Induction-PXR human PXR internal Max % Activity (human PXR) [%]
Cc1nn(C)c(C)c1S(=O)(=O)NC(=O)c1ccc(-n2ccc(OCCC3(C(F)(F)F)CC3)n2)nc1N1C[C@@H](C)CC1(C)C [Compound 18, 6-[3-[2-[1-(trifluoromethyl)cyclopropyl]ethoxy]pyrazol-1-yl]-N-(1,3,5-trimethylpyrazol-4-yl)sulfonyl-2-[(4S)-2,2,4-trimethylpyrrolidin-1-yl]pyridine-3-carboxamide] | 8 | 0 | 0.17 | 5
Cc1nn(C)cc1S(=O)(=O)NC(=O)c1ccc(-n2ccc(OC3CC3C(F)(F)F)n2)nc1N1C[C@@H](C)CC1(C)C (stereo partly drawn) [Compound 34, N-(1,3-dimethylpyrazol-4-yl)sulfonyl-6-[3-[2-(trifluoromethyl)cyclopropoxy]pyrazol-1-yl]-2-[(4S)-2,2,4-trimethylpyrrolidin-1-yl]pyridine-3-carboxamide] | 7.5 | 39 | 0.61 | 6
Cc1nn(C)cc1S(=O)(=O)NC(=O)c1ccc(-n2ccc(OCCC(C3CC3)C3CC3)n2)nc1N1C[C@@H](C)CC1(C)C [Compound 38, 6-[3-(3,3-dicyclopropylpropoxy)pyrazol-1-yl]-N-(1,3-dimethylpyrazol-4-yl)sulfonyl-2-[(4S)-2,2,4-trimethylpyrrolidin-1-yl]pyridine-3-carboxamide] | 1 | 56 | 0.11 | 2
Cc1nn(C)cc1S(=O)(=O)NC(=O)c1ccc(-n2ccc(OCC3C[C@@H]4CC[C@H]3C4)n2)nc1N1C[C@@H](C)CC1(C)C (stereo partly drawn) [Compound 50, N-(1,3-dimethylpyrazol-4-yl)sulfonyl-6-[3-[[(1S,4R)-norbornan-2-yl]methoxy]pyrazol-1-yl]-2-[(4S)-2,2,4-trimethylpyrrolidin-1-yl]pyridine-3-carboxamide] | 1.3 | 20 | 0.08 | 4

The next lines start with the values.

Papp A→B [1] [×10⁻⁶ cm/s] | Hepatocyte clearance-Rat Rat hepatocytes CL pct_unchanged (Rat hepatocytes) [%] | EC50 (F508del-CFTR) [µM] | CYP3A4 Induction-PXR human PXR internal Max % Activity (human PXR) [%] | SMILES
2.9 | 29 | 0.15 | 6 | Cc1nn(C)cc1S(=O)(=O)NC(=O)c1ccc(-n2ccc(O[C@H]3C[C@@H]4CC[C@H]3C4)n2)nc1N1C[C@@H](C)CC1(C)C [Compound 51, N-(1,3-dimethylpyrazol-4-yl)sulfonyl-6-[3-[(1S,2S,4R)-norbornan-2-yl]oxypyrazol-1-yl]-2-[(4S)-2,2,4-trimethylpyrrolidin-1-yl]pyridine-3-carboxamide]
2 | 18 | 0.17 | 2 | Cc1nn(C)cc1S(=O)(=O)NC(=O)c1ccc(-n2ccc(OCC3C4CCC3CC4)n2)nc1N1C[C@@H](C)CC1(C)C (stereo partly drawn) [Compound 52, N-(1,3-dimethylpyrazol-4-yl)sulfonyl-6-[3-(norbornan-7-ylmethoxy)pyrazol-1-yl]-2-[(4S)-2,2,4-trimethylpyrrolidin-1-yl]pyridine-3-carboxamide]
